Measured values reported in patent US20180148418A1, “AMIDO-SUBSTITUTED CYCLOHEXANE DERIVATIVES” (Bayer Pharma Aktiengesellschaft, priority 2015, published 2018).
Structures can show the parent of a compound that is named as a salt.

Columns and labels:
[1] = test system: HEK293 cells cotransfected with the FOP control vector; assay: HEK293 FOP assay (control reporter with non-functional TCF elements); type: cell-based; settings: Homo sapiens, 16 hours
Outline: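 Compound series from 50 μM down to 15 nM, prediluted in DMSO then 50-fold into CAFTY buffer (pH 7.4, 2 mM Ca2+, 0.01% BSA), tested alongside TOP cells on a Geneticin-selected HEK293 FOP line whose TCF elements are replaced by a random sequence; recombinant human Wnt-3a applied at 2500-5 ng/ml.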

TNKS1 = biological target: T1, TNKS1 (Homo sapiens, UniProt O95271); assay: TNKS1 Assay B (auto-parsylation, [3H]-NAD+ SPA); type: biochemical; settings: 6 nM TNKS1, auto-parsylation, over night at room temperature
T1 construct: purchased BPS Bioscience, San Diego, USA 80579 (TNKS1 Histone Ribosylation Assay Kit)
T1 sequence (O95271 1-1327): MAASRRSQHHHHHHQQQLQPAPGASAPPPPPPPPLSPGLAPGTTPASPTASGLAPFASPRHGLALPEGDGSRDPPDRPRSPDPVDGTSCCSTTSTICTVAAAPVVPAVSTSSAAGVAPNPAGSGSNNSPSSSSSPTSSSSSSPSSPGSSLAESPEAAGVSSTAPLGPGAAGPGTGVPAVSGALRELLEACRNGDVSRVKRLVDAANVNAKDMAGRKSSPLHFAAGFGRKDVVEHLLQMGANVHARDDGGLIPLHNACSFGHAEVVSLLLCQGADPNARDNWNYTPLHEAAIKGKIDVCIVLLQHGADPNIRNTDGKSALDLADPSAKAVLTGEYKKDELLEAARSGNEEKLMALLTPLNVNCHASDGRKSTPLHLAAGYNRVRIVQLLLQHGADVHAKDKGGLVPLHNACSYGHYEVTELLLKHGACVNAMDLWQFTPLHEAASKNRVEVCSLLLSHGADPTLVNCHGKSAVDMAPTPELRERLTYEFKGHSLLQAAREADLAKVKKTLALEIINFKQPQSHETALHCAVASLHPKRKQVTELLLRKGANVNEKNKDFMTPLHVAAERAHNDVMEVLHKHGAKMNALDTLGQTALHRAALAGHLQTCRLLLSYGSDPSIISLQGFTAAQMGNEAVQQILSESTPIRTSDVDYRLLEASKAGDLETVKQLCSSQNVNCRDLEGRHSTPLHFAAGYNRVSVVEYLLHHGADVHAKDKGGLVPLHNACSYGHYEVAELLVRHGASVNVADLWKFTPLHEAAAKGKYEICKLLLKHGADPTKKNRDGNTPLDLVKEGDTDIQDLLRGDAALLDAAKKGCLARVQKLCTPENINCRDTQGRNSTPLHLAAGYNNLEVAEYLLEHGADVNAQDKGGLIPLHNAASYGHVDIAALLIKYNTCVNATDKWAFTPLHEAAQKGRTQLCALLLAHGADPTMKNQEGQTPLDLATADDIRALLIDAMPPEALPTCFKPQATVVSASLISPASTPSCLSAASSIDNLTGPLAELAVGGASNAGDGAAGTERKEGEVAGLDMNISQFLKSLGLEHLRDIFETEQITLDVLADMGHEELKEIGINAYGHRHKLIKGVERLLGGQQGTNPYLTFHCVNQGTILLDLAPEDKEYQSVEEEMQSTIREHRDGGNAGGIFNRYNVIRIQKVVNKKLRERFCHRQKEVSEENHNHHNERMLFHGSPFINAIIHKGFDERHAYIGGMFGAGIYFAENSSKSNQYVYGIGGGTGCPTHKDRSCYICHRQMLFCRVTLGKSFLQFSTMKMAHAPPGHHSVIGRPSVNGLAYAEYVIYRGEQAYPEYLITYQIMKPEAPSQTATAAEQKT

Compound	IC50 (TNKS1) [nM]	IC50 [1] [µM]
CNC(=O)c1[nH]cnc1C(=O)N[C@H]1CC[C@@]2(CCN(c3ccc(F)cc3)C2=O)CC1 [Example 212, N^4-[(trans)-2-(4-fluorophenyl)-1-oxo-2-azaspiro[4.5]dec-8-yl]-N^5-methyl-1H-imidazole-4,5-dicarboxamide]	560	38
O=C(N[C@H]1CC[C@@]2(CCN(c3ccc(F)cc3Cl)C2=O)CC1)c1cnn2cc(CCO)cnc12 [Example 214, N-[(trans)-2-(2-chloro-4-fluorophenyl)-1-oxo-2-azaspiro[4.5]dec-8-yl]-6-(2-hydroxyethyl)pyrazolo[1,5-a]pyrimidine-3-carboxamide]	12	≥ 50
O=C(N[C@H]1CC[C@H](C(=O)Nc2ccc(F)cc2Cl)CC1)c1cnn2ccccc12 [Example 205, N-{trans-4-[(2-chloro-4-fluorophenyl)carbamoyl]cyclohexyl}pyrazolo[1,5-a]pyridine-3-carboxamide]	> 10000	25
CC1CN(C(=O)c2nc[nH]c2C(=O)N[C@H]2CC[C@@]3(CCN(c4ccc(F)cc4Cl)C3=O)CC2)CCS(=O)(=O)C1 (stereo partly drawn) [Example 183, N-[(trans)-2-(2-chloro-4-fluorophenyl)-1-oxo-2-azaspiro[4.5]dec-8-yl]-4-[(6-methyl-1,1-dioxido-1,4-thiazepan-4-yl)carbonyl]-1H-imidazole-5-carboxamide]	700	≥ 50
O=C(N[C@H]1CC[C@H](C(=O)Nc2ccc(F)cc2Cl)CC1)c1[nH]cnc1C(=O)N1CC2(COC2)C1 [Example 14, N-{trans-4-[(2-chloro-4-fluorophenyl)carbamoyl]cyclohexyl}-4-(2-oxa-6-azaspiro[3.3]hept-6-ylcarbonyl)-1H-imidazole-5-carboxamide]	63	≥ 50
C[C@]1(C(=O)Nc2ccc(F)cc2Cl)CC[C@@H](NC(=O)c2cnn3cccnc23)CC1 [Example 180, N-{cis-4-[(2-chloro-4-fluorophenyl)carbamoyl]-4-methylcyclohexyl}pyrazolo[1,5-a]pyrimidine-3-carboxamide]	> 10000	≥ 50
Cc1ccnc2c(C(=O)N[C@H]3CC[C@@]4(CCN(c5ccc(F)cc5Cl)C4=O)CC3)cnn12 [Example 222, N-[(trans)-2-(2-chloro-4-fluorophenyl)-1-oxo-2-azaspiro[4.5]dec-8-yl]-7-methylpyrazolo[1,5-a]pyrimidine-3-carboxamide]	13	≥ 50
O=C(N[C@H]1CC[C@H](C(=O)Nc2ccc(F)cc2Cl)CC1)c1cnc2ccccn12 [Example 206, N-{trans-4-[(2-chloro-4-fluorophenyl)carbamoyl]cyclohexyl}imidazo[1,2-a]pyridine-3-carboxamide]	> 10000	25

These reach a lower IC50 (TNKS1). Values come first.

IC50 (TNKS1) [nM]	Compound	IC50 [1] [µM]
11	Cc1ccn2ncc(C(=O)N[C@H]3CC[C@@]4(CCN(c5ccc(F)cc5Cl)C4=O)CC3)c2n1 [Example 221, N-[(trans)-2-(2-chloro-4-fluorophenyl)-1-oxo-2-azaspiro[4.5]dec-8-yl]-5-methylpyrazolo[1,5-a]pyrimidine-3-carboxamide]	18
8	CC(C)NC(=O)c1nc[nH]c1C(=O)N[C@H]1CC[C@@]2(CCN(c3cc(F)c(F)cc3Cl)C2=O)CC1 [Example 198, N^5-[(trans)-2-(2-chloro-4,5-difluorophenyl)-1-oxo-2-azaspiro[4.5]dec-8-yl]-N^4-(propan-2-yl)-1H-imidazole-4,5-dicarboxamide]	19
7.3	O=C(NC1CCC2(CC1)CCN(c1cc(F)c(F)cc1Cl)C2=O)c1cnn2cccnc12 (single isomer, unassigned; isomer 1) [Example 168, N-[2-(2-chloro-4,5-difluorophenyl)-1-oxo-2-azaspiro[4.5]dec-8-yl]pyrazolo[1,5-a]pyrimidine-3-carboxamide (isomer 1)]	≥ 50
8.2	O=C(N[C@H]1CC[C@@]2(CCN(c3ccc(F)cc3Cl)C2=O)CC1)c1cnn2ccc(N3CCNCC3)nc12 [Example 226, N-[(trans)-2-(2-chloro-4-fluorophenyl)-1-oxo-2-azaspiro[4.5]dec-8-yl]-5-(piperazin-1-yl)pyrazolo[1,5-a]pyrimidine-3-carboxamide hydrochloric acid salt]	≥ 0.5
8.7	CN1CC2(C1)CN(C(=O)c1nc[nH]c1C(=O)N[C@H]1CC[C@@]3(CCN(c4ccc(F)cc4Cl)C3=O)CC1)C2 [Example 185, N-[(trans)-2-(2-chloro-4-fluorophenyl)-1-oxo-2-azaspiro[4.5]dec-8-yl]-4-[(6-methyl-2,6-diazaspiro[3.3]hept-2-yl)carbonyl]-1H-imidazole-5-carboxamide]	≥ 50
